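GI50 is the concentration that inhibits growth by half. TGI: concentration producing complete growth inhibition.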
Key:
Test in all cases: NCI tumour cell line growth inhibition, 384-well format
786-0 renal = test system: 786-0 renal
A498 renal = test system: A498 renal
A549 NSCLC = test system: A549 NSCLC
ACHN renal = test system: ACHN renal
BT-549 breast = test system: BT-549 breast
DU-145 prostate = test system: DU-145 prostate
EKVX NSCLC = test system: EKVX NSCLC
HCT-116 colon = test system: HCT-116 colon
HL-60(TB) leukemia = test system: HL-60(TB) leukemia
HOP-92 NSCLC = test system: HOP-92 NSCLC
HS 578T breast = test system: HS 578T breast
HT29 colon = test system: HT29 colon
IGROV1 ovarian = test system: IGROV1 ovarian
K-562 leukemia = test system: K-562 leukemia
KM12 colon = test system: KM12 colon
LOX IMVI melanoma = test system: LOX IMVI melanoma
MALME-3M melanoma = test system: MALME-3M melanoma
MCF7 breast = test system: MCF7 breast
MDA-MB-231 breast = test system: MDA-MB-231 breast
MDA-MB-468 breast = test system: MDA-MB-468 breast
MOLT-4 leukemia = test system: MOLT-4 leukemia
NCI-H226 lung = test system: NCI-H226 lung
NCI-H23 lung = test system: NCI-H23 lung
NCI-H322M lung = test system: NCI-H322M lung
NCI-H460 NSCLC = test system: NCI-H460 NSCLC
NCI-H522 lung = test system: NCI-H522 lung
NCI/ADR-RES ovarian = test system: NCI/ADR-RES ovarian
OVCAR-3 ovarian = test system: OVCAR-3 ovarian
OVCAR-4 ovarian = test system: OVCAR-4 ovarian
OVCAR-8 ovarian = test system: OVCAR-8 ovarian
PC-3 prostate = test system: PC-3 prostate
RPMI-8226 leukemia = test system: RPMI-8226 leukemia
SF-295 CNS = test system: SF-295 CNS
SF-539 CNS = test system: SF-539 CNS
SK-MEL-2 melanoma = test system: SK-MEL-2 melanoma
SK-MEL-28 melanoma = test system: SK-MEL-28 melanoma
SK-MEL-5 melanoma = test system: SK-MEL-5 melanoma
SK-OV-3 ovarian = test system: SK-OV-3 ovarian
SN12C renal = test system: SN12C renal
SNB-75 CNS = test system: SNB-75 CNS
SW-620 colon = test system: SW-620 colon
T-47D breast = test system: T-47D breast
TK-10 renal = test system: TK-10 renal
U251 glioblastoma = test system: U251 glioblastoma
UACC-257 melanoma = test system: UACC-257 melanoma
UACC-62 melanoma = test system: UACC-62 melanoma
UO-31 renal = test system: UO-31 renal

## CC[C@H](NC(=O)[C@H](CS(=O)(=O)CC1CC1)N[C@@H](c1ccc(F)cc1)C(F)(F)F)C(=O)C(=O)NC1CC1
786-0 renal
  GI50: > 100 µM
  TGI: > 100 µM
A498 renal
  GI50: > 100 µM
  TGI: > 100 µM
A549 NSCLC
  GI50: > 100 µM
  TGI: > 100 µM
ACHN renal
  GI50: > 100 µM
  TGI: > 100 µM
BT-549 breast
  GI50: > 100 µM
  TGI: > 100 µM
DU-145 prostate
  GI50: > 100 µM
  TGI: > 100 µM
EKVX NSCLC
  GI50: 98.7 µM
  TGI: > 100 µM
HCT-116 colon
  GI50: > 100 µM
  TGI: > 100 µM
HL-60(TB) leukemia
  GI50: 84.2 µM
  TGI: > 100 µM
HOP-92 NSCLC
  GI50: > 100 µM
  TGI: > 100 µM
HS 578T breast
  GI50: > 100 µM
  TGI: > 100 µM
HT29 colon
  GI50: > 100 µM
  TGI: > 100 µM
IGROV1 ovarian
  GI50: > 100 µM
  TGI: > 100 µM
K-562 leukemia
  GI50: > 93.1 µM
  TGI: > 100 µM
KM12 colon
  GI50: > 100 µM
  TGI: > 100 µM
LOX IMVI melanoma
  GI50: > 100 µM
  TGI: > 100 µM
MALME-3M melanoma
  GI50: > 100 µM
  TGI: > 100 µM
MCF7 breast
  GI50: 97.5 µM
  TGI: > 100 µM
MDA-MB-231 breast
  GI50: > 100 µM
  TGI: > 100 µM
MDA-MB-468 breast
  GI50: 22.8 µM
  TGI: 67.5 µM
MOLT-4 leukemia
  GI50: 29.5 µM
  TGI: > 100 µM
NCI-H226 lung
  GI50: > 71.7 µM
  TGI: > 100 µM
NCI-H23 lung
  GI50: > 100 µM
  TGI: > 100 µM
NCI-H322M lung
  GI50: > 100 µM
  TGI: > 100 µM
NCI-H460 NSCLC
  GI50: > 100 µM
  TGI: > 100 µM
NCI-H522 lung
  GI50: > 100 µM
  TGI: > 100 µM
NCI/ADR-RES ovarian
  GI50: > 100 µM
  TGI: > 100 µM
OVCAR-3 ovarian
  GI50: > 100 µM
  TGI: > 100 µM
OVCAR-4 ovarian
  GI50: > 100 µM
  TGI: > 100 µM
OVCAR-8 ovarian
  GI50: > 100 µM
  TGI: > 100 µM
PC-3 prostate
  GI50: > 100 µM
  TGI: > 100 µM
RPMI-8226 leukemia
  GI50: 77.2 µM
  TGI: > 100 µM
SF-295 CNS
  GI50: > 100 µM
  TGI: > 100 µM
SF-539 CNS
  GI50: > 100 µM
  TGI: > 100 µM
SK-MEL-2 melanoma
  GI50: > 100 µM
  TGI: > 100 µM
SK-MEL-28 melanoma
  GI50: > 100 µM
  TGI: > 100 µM
SK-MEL-5 melanoma
  GI50: > 100 µM
  TGI: > 100 µM
SK-OV-3 ovarian
  GI50: > 100 µM
  TGI: > 100 µM
SN12C renal
  GI50: > 100 µM
  TGI: > 100 µM
SNB-75 CNS
  GI50: > 89.5 µM
  TGI: > 100 µM
SW-620 colon
  GI50: > 100 µM
  TGI: > 100 µM
T-47D breast
  GI50: > 59.9 µM
  TGI: > 100 µM
TK-10 renal
  GI50: > 100 µM
  TGI: > 100 µM
U251 glioblastoma
  GI50: > 100 µM
  TGI: > 100 µM
UACC-257 melanoma
  GI50: > 100 µM
  TGI: > 100 µM
UACC-62 melanoma
  GI50: > 100 µM
  TGI: > 100 µM
UO-31 renal
  GI50: > 100 µM
  TGI: > 100 µM

— PubChem BioAssay (NCI)
